Results taken from US20250032511A1, “[…] USE IN TREATMENT OF SUPER […] EPILEPTICUS” (MARINUS PHARMACEUTICALS, INC., priority 2023, published 2025).

Experiments:
[1] = test system: super refractory status epilepticus; test: Case report: intravenous ganaxolone in a patient with super refractory status epilepticus (EEG, mental status); assay type: in vivo, human
SRSE = SRSE patients; anesthesia weaned until seizures started, then higher IV doses; cited from earlier work
[2] = in contrast to allopregnanolone; cited from earlier work

CC(=O)[C@H]1CC[C@H]2[C@@H]3CC[C@H]4C[C@](C)(O)CC[C@]4(C)[C@H]3CC[C@]12C [Ganaxolone, 3α-hydroxy-3β-methyl-5α-pregnan-20-one]
frequency of remaining generalized periodic discharges (GPDs) on EEG in subsequent days ([1]; before GNX: 2-4 Hz GPDs, same patient and regimen): up to 1 Hz | overall outcome of the case ([1]; late initiation of GNX (hospital day 52)): electrographic and clinical improvement | EEG pattern during GNX infusion ([1]; person, SRSE, IV 20 mg bolus, 60 mg/hr first hour, then 42 mg/hr, total 7 days): marked improvement in the EEG pattern | mental status ([1]; same patient, eye opening, attending, communicating with gestures and facial expressions): returned to their premorbid baseline | clinical outcome of earlier higher-dose regimen (SRSE): showed early success, but seizures returned in some patients when ganaxolone serum levels were reduced | oral bioavailability [2]: orally bioavailable
